The values that follow come from US20080227829A1, “Neurogenic compounds” (priority 2007, published 2008).

In one test the test system is dentate gyrus. Nature of the test: BrdU/DAB quantification of dividing cells in the dentate gyrus after long-term study. The format is in vivo, mice. Conditions: for number of dividing cells (BrdU+) in the dentate gyrus: 25 mg/kg i.p. 42 days; for number of dividing cells (BrdU+) in the dentate gyrus, overall statement: running and non-running groups. Here is the method: Injections were administered intraperitoneally (i.p.) for forty-two days total. In addition to test injections, daily i.p. injections of 5-bromo-2-deoxyuridine (BrdU) [10 mg/ml] were administered for the first eight days at a dose of 50 mg/kg. Within each test group, eight mice were randomly selected to receive running exercise. These thirty-two mice (eight mice per injection group) were transferred daily (on Days 1-40 of the study) from their normal static housing to an automated voluntary running wheel cage for two hours a day. Non-running mice remained in their static cages throughout the study. After the long-term study of Example 1 and all behavioral testing was concluded (Day 42), mice were perfused using 4% paraformaldehyde and their brain tissue was extracted. Brain tissue was sectioned and stained for BrdU/DAB quantification of dividing cells. A second immunofluorescence stain was used for phenotyping of the newly dividing cells. Brain sections were also taken and stained with Brdu/NeuN/GFAP. Phenotype analysis was completed to determine the percentage of dividing cells co-labeled with NeuN, a marker used to identify mature neurons. Using the percentage, it was possible to calculate the total number of BrdU/NeuN co-labeled cells in the dentate gyrus.

Another test deals with NeuroD. Nature of the test: NeuroD luciferase reporter assay. In kind it is cell-based. Conditions: 5 mM apigenin; cells first allowed to proliferate with FGF2 for twenty-four hours; 2-day treatment. Here is the method:
Adult neural progenitor cells were plated in N2 media containing FGF2 for twenty-four hours. See Bottenstein et al., Growth of a rat neuroblastoma cell line in serum-free supplemented medium, Proc. Natl. Acad. Sci. USA 76(1) (1979) (describing components of N2 media).
The cells were replaced with fresh N2 media (without FGF2) and apigenin was added. In all experiments, 5 mM apigenin dissolved in DMSO was used. As a positive control for neuronal differentiation, N2 media containing retinoic acid (RA) and forskolin (FSK) was used. As a negative control, N2 media and the equivalent amount of DMSO or N2 was used. Either a NeuroD luciferase reporter assay (purchased from Promega, cat. No. e-1980, Dual-Luciferase Reporter 1000 Assay System) was performed two days later or immunohistochemistry was performed four days later. […]
(In general: Reporter assays use an easily measured gene product as a stand-in for the process of interest.)

The subject of test [1] is Adult neural progenitor cells. The test can be described thus: Immunohistochemistry with lineage-specific markers (Tuj 1, GFAP, RIP). In kind it is cell-based. Here is the method:
Adult neural progenitor cells were plated in N2 media containing FGF2 for twenty-four hours. See Bottenstein et al., Growth of a rat neuroblastoma cell line in serum-free supplemented medium, Proc. Natl. Acad. Sci. USA 76(1) (1979) (describing components of N2 media). The cells were replaced with fresh N2 media (without FGF2) and apigenin was added. In all experiments, 5 mM apigenin dissolved in DMSO was used. As a positive control for neuronal differentiation, N2 media containing retinoic acid (RA) and forskolin (FSK) was used. As a negative control, N2 media and the equivalent amount of DMSO or N2 was used. Either a NeuroD luciferase reporter assay (purchased from Promega, cat. No. e-1980, Dual-Luciferase Reporter 1000 Assay System) was performed two days later or immunohistochemistry was performed four days later. The immunohistochemical analysis of the apigenin-treated and control cells was performed by fixing and staining the cells after four days with lineage-specific markers (Tuj 1 for neurons, GFAP for astrocytes, and RIP for oligodendrocytes). Tuj 1 is a neuron-specific class III beta-tubulin used as a marker for new neurons. GFAP (glial fibrillary acidic protein), an intermediate-filament protein which is expressed almost exclusively in the astrocytes of the central nervous system, is used as a marker for new astrocytes. RIP is a monoclonal antibody used as an early marker of developing oligodendrocytes.

The next test has as its system AKT. Nature of the test: Western blot of phosphorylated signaling mediators. The format is cell-based. Conditions: 5 mM apigenin; by six hours; adult neural progenitor cells starved two hours; normalized to unphosphorylated form. Here is the method:
(§1) Adult neural progenitor cells were grown in proliferating conditions (N2 containing FGF2) in six-well plates for at least twenty-four hours. Before collecting cell lysates, the media was removed and replaced with DMEM/F12 for two hours (DMEM/F12 is defined media which lacks insulin and FGF2, two factors known to trigger various cell signaling pathways). In this key “starvation” step, the activation of various downstream mediators returned to steady-state levels. Cells were starved for two hours and the time zero data were collected. One of the following was added and the lysates collected at various time-points: (1) N2 only or (−) DMSO (negative control); (2) (+) DMSO (also a negative control); (3) apigenin; or (4) RA+FSK (positive control). Two time-course experiments were then carried out. The first was an early time-course to measure the acute effects of apigenin at zero minutes, ten minutes, thirty minutes, two hours, six hours, and twenty-four hours. The second experiment was a late time-course to measure long-term effects of apigenin at zero, one, two, three, and four days; the results of this experiment are not discussed here. Cell lysates were then loaded and transferred to Western Blots and the membranes hybridized with antibodies against the phosphorylated and unphosphorylated forms of each protein. The data results with the unphosphorylated form of the protein are not discussed here. The data discussed with respect to the phosphorylated protein are representative of at least three independent experiments and are normalized to the unphosphylated forms (internal control).
(In general: A western blot detects proteins with antibodies after separation by electrophoresis.)

For a further test, the system named is CREB. The test can be described thus: Western blot of phosphorylated signaling mediators. In kind it is cell-based. To be noted: adult neural progenitor cells; negative controls show the same results. How it is done:
as §1

Another test concerns ERKs. The test can be described thus: Western blot of phosphorylated signaling mediators. In kind it is cell-based. Conditions: adult neural progenitor cells; negative controls show the same results. How it is done:
as §1

Another test deals with GSK3b. Nature of the test: Western blot of phosphorylated signaling mediators. The format is cell-based. Conditions: adult neural progenitor cells; negative controls show the same results. Here is the method: as §1
A further test has as its system b-catenin. The test can be described thus: Western blot of phosphorylated signaling mediators. In kind it is cell-based. To be noted: adult neural progenitor cells; negative controls show the same results. How it is done: as §1
Setting [2] is: 5 mM apigenin, cells first proliferating in FGF2, four days.

For the molecule `O=c1cc(-c2ccc(O)cc2)oc2cc(O)cc(O)c12` [apigenin], the “number of dividing cells (BrdU+) in the dentate gyrus” value in the test with dentate gyrus (non-runners, vs control non-runners and apigenin 12.5 mg/kg non-runners, p<0.01) is on record as “significant increase in the number of dividing cells”; in the test with dentate gyrus (runners, vs running control, p<0.05), “significantly more dividing cells”. Also, the “number of dividing cells (BrdU+) in the dentate gyrus, overall statement” value in the test with dentate gyrus was “increases”; in the test on dentate gyrus (listed as Apigenin), “increased BrdU labeling in both running and non-running groups”. Further, the “NeuroD-activation (luciferase) as compared to activation by RA+FSK” value with NeuroD is listed as “two-fold higher”. Besides, the “astrocyte (GFAP) differentiation” value in test [1] (setting [2]) is recorded as 1-5%. The “oligodendrocyte (RIP) differentiation” value in test [1] (setting [2]) is given as 1-5%. Besides, in test [1] (5 mM apigenin, directly plated into N2 media without FGF2, four days), the “percentage of Tuj 1-positive neurons” value lay in the range of 5 to 30%. The “difference in Tuj 1 or Map2ab-positive neurons with or without FGF-2 pre-treatment” value in test [1] (repeated experiments) was “no significant difference”. Besides, the “phosphorylation of AKT (pAKT)” value in the test with AKT is given as “increased phosphorylation of AKT”. Further, the “phosphorylation of CREB” value in the test with CREB is “non-specific effects”. Further, in the test on ERKs, the “phosphorylation of ERKs” value was “non-specific effects”. The “phosphorylation of GSK3b” value with GSK3b is given as “non-specific effects”. The phosphorylation of b-catenin entry in the test with b-catenin is listed as “non-specific effects”.
